Results on one molecule are retold here after US5840750A, “Discodermolide compounds” (priority 1996, dated 1998).

The subject of one data set is SF 295. The data set is described as follows: NCI in vitro tumor cell line panel, LC50, CNS cancer. The data set is classed as cell-based, human. An excerpt:
(§1) Discodermolide was additionally evaluated for its anti-proliferative effects utilizing the National Cancer Institute's in vitro tumor cell line panel. The results of these analyses are shown in the mean graphs presented as FIGS. 1A-1K. The data are presented using known and accepted measurements of "Growth Inhibition-50" (GI50), where growth of 50% of the cells is inhibited; "Total Growth Inhibition" (TGI), where growth of all cells is inhibited, i.e., cytostasis; and "Lethal Concentration-50" (LC50), where 50% of the cells are killed.

The subject of another data set is SF 539. The description is as above. It counts as cell-based, human.
From the text: as §1

Data set [1] has as its system murine lymphoid and non-lymphoid cell lines. The data set is described as follows: Constitutive proliferation of murine lymphoid and non-lymphoid cell lines (summary). The data set is classed as cell-based. The following applies: Mus musculus, read-out: IC50 values, range over murine cell lines.
From the text: The effects of discodermolide on the inhibition of constitutive proliferation of a number of lymphoid and non-lymphoid cell lines of mouse or human origin was investigated.
For a further data set, the system named is NCI-H23. Put plainly: NCI in vitro tumor cell line panel, LC50, non-small cell lung cancer. The data set is classed as cell-based. Conditions: human non-small cell lung cancer (NCI-H23).
From the text: as §1

Data set [2] deals with microtubule cytoskeleton in MCF-7 cells and MDA-MB-231 cells. Put plainly: Indirect immunofluorescence for effects on the microtubule cytoskeleton of human breast carcinoma cells. It counts as cell-based. Here is the method: The effect of discodermolide on two human breast carcinoma cell lines, estrogen receptor positive MCF-7 cells, and estrogen receptor negative MDA-MB-231 cells, was determined. The results were compared with those obtained by treatment with taxol. Both lines were examined for drug effects on growth and by indirect immunofluorescence for effects on the microtubule cytoskeleton. The results were similar for both lines. […] These patterns appeared at concentrations as low as 10 nm.

Another data set concerns MDA-N. Put plainly: NCI in vitro tumor cell line panel, LC50, breast cancer. The data set is classed as cell-based, human.
From the text: as §1

A further data set has as its system MDA-MB-435. The data set is described as above. The data set is classed as cell-based, human.
From the text: as §1

The next data set relates to tubulin. Put plainly: Assembly of tubulin without MAPs or GTP. It counts as biochemical. Here is the method: Discodermolide was analyzed for its interactions with tubulin. Tubulin polymerization was monitored turbidimetrically at 350 nm with an electronic temperature controller. Reaction mixtures contained 0.1M 4-morpholine-ethanesulfonate (pH 6.9), 1.0 mg/ml (10 μM) electrophoretically-homogenous bovine brain tubulin freed of unbound nucleotide by gel filtration, […], and 4% (v/v) dimethylsulfoxide. A concentration of 10 μM of discodermolide (curve 3) was compared with the same concentration of taxol (curve 2) and no drug (curve 1), as shown in FIG. 5.

Data set [3] can be described thus: Constitutive proliferation of human non-lymphoid normal (foreskin) fibroblasts. Conditions: human, foreskin fibroblasts.
The next data set deals with Normal Fibroblast. The description is as above.

Structures are written as SMILES.

With `C=C/C=C\C(C)C(OC(N)=O)C(C)C(O)C(C)C/C(C)=C\C(C)C(O)C(C)/C=C\C(O)CC1OC(=O)C(C)C(O)C1C` (single isomer, unassigned) [discodermolide], the “LC50 (in words)” value with SF 295, in the data set with SF 539, in the data set with NCI-H23, with MDA-N and in the data set on MDA-MB-435 was “particularly effective” throughout. In addition, the IC50 in data set [1] was 3 to 60 nM; in the data set on Normal Fibroblast (Homo sapiens, Fibroblast), 15 nM. In addition, in data set [2] (Homo sapiens, Breast carcinoma cell, read-out: concentration at which immunofluorescence patterns appeared), the minimal effective concentration was 0.01 µM. Further, the Immunofluorescence patterns entry in data set [2] (cellular microtubules) is “remarkable rearrangement of cellular microtubules”. Further, the “assembly of tubulin without MAPs or GTP” value in the data set on tubulin is “induced the assembly of tubulin”. In addition, in the data set with tubulin (especially at low temperatures), the “assembly reactions compared to taxol” value is reported as “more dramatic compared to those observed with taxol”. The CC50 in [3] is > 3000 nM. In the data set with Normal Fibroblast (human foreskin fibroblast, concentrations up to 3.0 μM), the “viable cell recovery (toxicity)” value is listed as “not affected”.
